The record followed here is patent publication US20240251792A1, “WEED CONTROL METHOD” (SYNGENTA CROP PROTECTION AG, priority 2021, published 2024).

Structures are written as SMILES. Like-named read-outs stand apart in the source and are kept apart here.

What all share (type): in vivo
One test relates to ABUTH. As to the kind of experiment: Pre-emergence biological efficacy (Table 3). Particulars: after 13 days; for pest or weed control at 1000 g/ha: Abutilon theophrasti, 312 h, read-out: evaluation (100=total damage to plant; 0=no damage to plant); for evaluation (100=total damage to plant; 0=no damage to plant): 1000 g/ha. A digest of the protocol:
(§1)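 Visual damage score (0 = no damage, 100 = total damage) read 13 days after spraying. Pots were sown one day earlier and held at 24/19 °C, 16 h light; the 50 g/l acetone/AMA formulation was diluted in 0.2% Genapol X080 to the final dose.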

Another test has as its system AMARE. As to the kind of experiment: Pre-emergence biological efficacy (Table 3). Particulars: 1000 g/ha, after 13 days; for pest or weed control at 1000 g/ha: Amaranthus retroflexus, 312 h, read-out: evaluation (100=total damage to plant; 0=no damage to plant). A digest of the protocol:
as §1

A further test relates to ECHCG. As to the kind of experiment: Pre-emergence biological efficacy (Table 3). The following applies: 1000 g/ha, after 13 days; for pest or weed control at 1000 g/ha: Echinochloa crus-galli, 312 h, read-out: evaluation (100=total damage to plant; 0=no damage to plant). In a few lines:
as §1

For a further test, the system named is IPOHE. As to the kind of experiment: Pre-emergence biological efficacy (Table 3). The following applies: 1000 g/ha, after 13 days; for pest or weed control at 1000 g/ha: Ipomoea hederacea, 312 h, read-out: evaluation (100=total damage to plant; 0=no damage to plant). A digest of the protocol:
as §1

The test system of another test is STEME. As to the kind of experiment: Pre-emergence biological efficacy (Table 3). The following applies: after 13 days; for pest or weed control at 1000 g/ha: 312 h, read-out: evaluation (100=total damage to plant; 0=no damage to plant); for evaluation (100=total damage to plant; 0=no damage to plant): 1000 g/ha. In a few lines:
as §1

For a further test, the system named is ZEAMX. As to the kind of experiment: Pre-emergence biological efficacy (Table 3). The following applies: 1000 g/ha, after 13 days; for plant injury at 1000 g/ha: 312 h, read-out: evaluation (100=total damage to plant; 0=no damage to plant). In a few lines: as §1
For a further test, the system named is weeds and/or crops. The experiment in a line: Post-emergence biological efficacy (Table 4). Particulars: 1000 g/ha, evaluated after 13 days; for pest or weed control at 1000 g/ha: 312 h. In a few lines:
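Weeds and crops were grown 14 days in a glasshouse, then sprayed post-emergence with compound formulated in acetone/F50 and diluted in 0.2% Genapol X080 to the final dose. Damage was scored after 13 days on a 0–100 scale, where 100 is total damage.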

Where [1] appears, read: STEME, read-out: damage to plant STEME (100=total damage; 0=no damage).
Setting [2] is: ZEAMX, read-out: damage to plant ZEAMX (100=total damage; 0=no damage).
Where [3] appears, read: Amaranthus retroflexus, AMARE, read-out: damage to plant AMARE (100=total damage; 0=no damage).
[4] abbreviates: Echinochloa crus-galli, ECHCG, read-out: damage to plant ECHCG (100=total damage; 0=no damage).
[5] abbreviates: Ipomoea hederacea, IPOHE, read-out: damage to plant IPOHE (100=total damage; 0=no damage).
Setting [6] is: Abutilon theophrasti, ABUTH, read-out: damage to plant ABUTH (100=total damage; 0=no damage).

Consider `O=C(O)C(F)(F)c1cccc2nccnc12` [Compound 1-409, 2,2-Difluoro-2-(quinoxalin-5-yl)acetic acid], for which the pest or weed control at 1000 g/ha with ABUTH was 70%; in the test with AMARE, 50%; in the test with ECHCG, 20%; with IPOHE it was 70%; in the test on STEME, 30%; with weeds and/or crops (setting [1]), 40%. The pest or weed control at 1000 g/ha with weeds and/or crops (setting [2]) came out at 10%; in the test with weeds and/or crops (setting [3]), 70%; with weeds and/or crops (setting [4]) it was 10%; in the test with weeds and/or crops (setting [5]), 80%. Further, the plant injury at 1000 g/ha with ZEAMX was determined as 0%.
Turning to `Nc1c(Cl)cc(Cl)c(Cl)c1C(F)(F)C(=O)O` [Compound 1-81, 2-(2-Amino-3,5,6-trichloro-phenyl)-2,2-difluoro-acetic acid], the pest or weed control at 1000 g/ha in the test with ABUTH came to 20%; in the test on AMARE, 30%; in the test on ECHCG, 0%; in the test with IPOHE, 10%; in the test on STEME, 20%; in the test on weeds and/or crops (setting [1]), 50%. For the same compound, the pest or weed control at 1000 g/ha amounted to 0% in the test with weeds and/or crops (setting [2]); 20% with weeds and/or crops (setting [6]); 50% in the test on weeds and/or crops (setting [3]); 10% in the test on weeds and/or crops (setting [4]); 50% with weeds and/or crops (setting [5]). Besides, the plant injury at 1000 g/ha with ZEAMX is 0%.
With `Nc1ccc(Cl)c(Cl)c1C(F)(F)C(=O)[O-].[Li+]` [Compound 5-80, Lithium;2-(6-amino-2,3-dichloro-phenyl)-2,2-difluoro-acetate], the “evaluation (100=total damage to plant; 0=no damage to plant)” value in the test on ABUTH, with AMARE, with ECHCG, in the test on IPOHE, with STEME and with ZEAMX was 0 each time. The “damage to plant AMARE (100=total damage; 0=no damage)” value with weeds and/or crops (AMARE) worked out at 20. In addition, the “damage to plant ECHCG (100=total damage; 0=no damage)” value in the test on weeds and/or crops (ECHCG) is 0. In addition, the “damage to plant IPOHE (100=total damage; 0=no damage)” value with weeds and/or crops (IPOHE) is 10. Also, the “damage to plant STEME (100=total damage; 0=no damage)” value with weeds and/or crops (STEME) came out at 10. In the test with weeds and/or crops (ZEAMX), the “damage to plant ZEAMX (100=total damage; 0=no damage)” value is recorded as 10.
For `O=C(O)C(F)(F)c1cccc(Cl)c1[N+](=O)[O-]` [Compound 7-250, Ammonium 2-(3-chloro-2-nitro-phenyl)-2,2-difluoro-acetate], the pest or weed control at 1000 g/ha in the test on ABUTH is 90%; in the test on AMARE, 100%; with ECHCG, 30%; in the test on IPOHE it was 90%; with STEME, 100%; in the test on weeds and/or crops (setting [1]), 100%. The pest or weed control at 1000 g/ha in the test with weeds and/or crops (setting [2]) is 20%; in the test with weeds and/or crops (setting [6]) it was 90%; in the test on weeds and/or crops (setting [3]) it was 100%; with weeds and/or crops (setting [4]), 30%; in the test with weeds and/or crops (setting [5]), 80%. For the same compound, the plant injury at 1000 g/ha in the test with ZEAMX amounted to 50%.
Regarding `N.Nc1ccc(C(F)(F)C(=O)O)c(Cl)c1Cl` [Compound 7-75, Ammonium;2-(4-amino-2,3-dichloro-phenyl)-2,2-difluoro-acetate], the “evaluation (100=total damage to plant; 0=no damage to plant)” value is reported as 70 with ABUTH; 70 with AMARE; 30 in the test on ECHCG; 20 in the test on IPOHE; 70 in the test on STEME; 0 in the test with ZEAMX. Moreover, the “damage to plant AMARE (100=total damage; 0=no damage)” value with weeds and/or crops (AMARE) amounted to 70. Moreover, the “damage to plant ECHCG (100=total damage; 0=no damage)” value in the test on weeds and/or crops (ECHCG) worked out at 60. In addition, the “damage to plant IPOHE (100=total damage; 0=no damage)” value in the test with weeds and/or crops (IPOHE) stood at 20. In the test with weeds and/or crops (STEME), the “damage to plant STEME (100=total damage; 0=no damage)” value is 90. Besides, the “damage to plant ZEAMX (100=total damage; 0=no damage)” value with weeds and/or crops (ZEAMX) came to 10.
As to `COc1ccc(Cl)c(C(F)(F)C(=O)O)c1` [Compound 1-62, 2-(2-Chloro-5-methoxyphenyl)-2,2-difluoroacetic acid], the pest or weed control at 1000 g/ha was 50% in the test on ABUTH; 80% in the test on AMARE; 30% with ECHCG; 20% in the test with IPOHE; 80% with STEME; 60% in the test on weeds and/or crops (setting [1]). In addition, the pest or weed control at 1000 g/ha in the test with weeds and/or crops (setting [2]) was determined as 20%; in the test on weeds and/or crops (setting [6]) it was 20%; with weeds and/or crops (setting [3]), 60%; in the test on weeds and/or crops (setting [5]) it was 70%. Moreover, the plant injury at 1000 g/ha in the test with ZEAMX was 20%.
`COc1c(F)ccc(F)c1C(F)(F)C(=O)O` [Compound 1-314, 2-(3,6-Difluoro-2-methoxyphenyl)-2,2-difluoroacetic acid]: the pest or weed control at 1000 g/ha in the test on ABUTH, in the test with AMARE, with ECHCG, in the test with IPOHE, in the test with STEME and in the test with weeds and/or crops (setting [1]) was 0% throughout. For the same compound, the pest or weed control at 1000 g/ha was 10% in the test with weeds and/or crops (setting [2]); 0% with weeds and/or crops (setting [6]); 60% with weeds and/or crops (setting [3]); 0% in the test with weeds and/or crops (setting [4]); 10% in the test with weeds and/or crops (setting [5]). Besides, in the test with ZEAMX, the plant injury at 1000 g/ha came out at 0%.
Turning to `CSc1c(Cl)cccc1C(F)(F)C(=O)O` [Compound 1-356, 2-(3-Chloro-2-(methylthio)phenyl)-2,2-difluoroacetic acid], the pest or weed control at 1000 g/ha with ABUTH stood at 30%; in the test on AMARE, 50%; in the test with ECHCG it was 0%; in the test on IPOHE, 50%; in the test with STEME, 30%; in the test on weeds and/or crops (setting [1]), 70%. Further, the pest or weed control at 1000 g/ha stood at 10% in the test with weeds and/or crops (setting [2]); 60% in the test with weeds and/or crops (setting [6]); 40% in the test on weeds and/or crops (setting [3]); 0% in the test with weeds and/or crops (setting [4]); 70% with weeds and/or crops (setting [5]). Besides, in the test on ZEAMX, the plant injury at 1000 g/ha amounted to 10%.
In the case of `Cc1noc2ccc(Cl)c(C(F)(F)C(=O)O)c12` [Compound 1-395, 2-(5-Chloro-3-methyl-1,2-benzoxazol-4-yl)-2,2-difluoro-acetic acid], the pest or weed control at 1000 g/ha in the test with ABUTH is 10%; with AMARE it was 30%; in the test on ECHCG, 20%; with IPOHE, 50%; in the test with STEME it was 10%; in the test with weeds and/or crops (setting [1]), 20%. In addition, the pest or weed control at 1000 g/ha was determined as 0% in the test with weeds and/or crops (setting [2]); 20% in the test on weeds and/or crops (setting [6]); 40% with weeds and/or crops (setting [3]); 10% in the test on weeds and/or crops (setting [4]); 70% in the test on weeds and/or crops (setting [5]). Further, the plant injury at 1000 g/ha with ZEAMX amounted to 0%.
